Literature values, collected in US6020121A (priority 1996, dated 2000).

Test system: production of several toxins
Conditions: Agr independent; cited from earlier work

Question: With `CCCCCCCCCCCC(=O)OCC(O)CO` (stereo not shown) [GML, Glycerol monolaureate, reference compound] as the compound, how does the “production of several toxins” value read?
Answer: lower the production of several toxins in an Agr independent manner
